According to US10851403B2, “Cyclin-dependent kinase substrate” (SYSMEX CORPORATION, priority 2017, dated 2020):
No end group written: not given here. *: point of attachment. Biotin = O=C1N[C@H]2[C@H](CS[C@H]2CCCCC(=O)*)N1; Ahx = NCCCCCC(=O)O

What was measured:
Assay type in all cases: biochemical
CDK4 and CDK6 = assay: CDK reactivity test 2 (Test Example 2), CDK4/6 reactivity; conditions: [(V2/V1)+(V4/V3)]/2; relative value when Comparative Polypeptide 2 is set as 1
Method: (§1) In a tube, 15 μL of a CDK solution (composition: 10 μg/mL CDK/cyclin complex, 1% BSA, triethanolamine buffer solution (pH 7.5)) containing CDK1/cyclin A2, CDK2/cyclin E1, CDK4/cyclin D3 or CDK6/cyclin D3 (all manufactured by SignalChem) and 15 μL of a kinase reaction solution (composition: 4 μg/mL substrate peptide, 50 mM HEPES-NaOH buffer solution (pH 7.4), 15 mM MgCl2, 2 mM ATP-γS) containing Polypeptide 1, Comparative Polypeptide 1 or Comparative Polypeptide 2 as a substrate peptide were mixed, and the tube was incubated at 37° C. for 1 hour with stirring at 900 rpm using a constant temperature shaker. 21.4 μL of a fluorescent labeling reagent (composition: 180 μg/ml 5-(iodoacetamide)-FITC, 50 mM EDTA, 300 mM MOPS-NaOH, pH 7.4) was added to the tube and pipetted 5 times, then the tube was shielded from light and incubated at 37° C. for 10 minutes with stirring at 400 rpm using a constant temperature shaker. 100 μL of a fluorescent labeling reaction stop solution (composition: 30 mM N-acetyl-L-cysteine, 2 M MOPS-NaOH, pH 7.4) was added to the tube and pipetted 5 times. 30 μL (containing 0.15 μg of magnetic St-Ab beads) of a HISCL HBsAg R2 reagent (manufactured by Sysmex Corporation) was added to the tube, then the tube was shielded from light and incubated at 37° C. for about 10 minutes with stirring at 1600 rpm using a constant temperature shaker. The beads in the tube were precipitated using a magnet, and the supernatant was removed. Then, TBS-T was added, and the beads were washed at 37° C. for about 10 seconds with stirring at 1600 rpm. This washing step was performed three times in total. 100 μL of an ALP-labeled anti-FITC antibody solution (composition: 0.2 to 1 μg/mL ALP-labeled anti-FITC antibody (manufactured by Jackson ImmunoResearch Laboratories, Inc.), 100 mM MES, 150 mM NaCl, 1% BSA, pH 6.5) was added to the tube, then the tube was shielded from light and incubated at 37° C. for about 10 minutes with stirring at 1600 rpm using a constant temperature shaker. The beads in the tube were precipitated using a magnet, and the supernatant was removed. Then, TBS-T was added, and the beads were washed at 37° C. for about 10 seconds with stirring at 1600 rpm. This washing step was performed three times in total. 50 μL of a buffer solution containing Tris (manufactured by Sysmex Corporation, HISCL R4 reagent) was added to the tube and stirred at 2000 rpm at 37° C. for 10 seconds using a constant temperature shaker. 100 μL of a buffer solution (manufactured by Sysmex Corporation, HISCL R5 reagent) containing an ALP luminescent substrate (disodium 2-chloro-5-(4-methoxyspiro{1,2-dioxetane-3,2′-(5′-chloro)-tricyclo[3.3.1.1^3,7]decan}-4-yl)-1-phenyl phosphate) was added to the tube, then the tube was shielded from light and incubated at 37° C. for 4 minutes with stirring at 1600 rpm using a constant temperature shaker. The beads in the tube were precipitated using a magnet, and the supernatant was transferred to a black plate. Luminescence was detected with a luminometer, and the luminescence intensity was measured.
Test Example 2 was carried out in the same manner as in Test Example 1 except that CDK4 or CDK6 was used as CDK and the polypeptides (Polypeptides 2 to 13) obtained in Production Example 2 or Comparative Polypeptide 2 was used as a substrate peptide. V1 to V4 below:
V 1: luminescence intensity when using Comparative Polypeptide 2 and CDK4,
V 2: luminescence intensity when using any of Polypeptides 2 to 17 and A to E, and CDK4,
V 3: luminescence intensity when using Comparative Polypeptide 2 and CDK6, and
V 4: luminescence intensity when using any of Polypeptides 2 to 17 and A to E, and CDK6
were measured, and CDK4/6 reactivity was calculated based on the formula ([(V2/V1)+(V4/V3)]/2). CDK4/6 reactivity is a relative value when the CDK4/6 reactivity of Comparative Polypeptide 2 is set as 1. […]

CDK6/cyclin D3 = biological target: T1, CDK6/cyclin D3 (Homo sapiens, UniProt Q00534); assay: CDK reactivity test 1 (Test Example 1); conditions: 10 μg/mL CDK/cyclin complex, 4 μg/mL substrate peptide, ATP-γS, 37° C. 1 hour
T1 construct: purchased SignalChem
T1 sequence (Q00534 whole entry): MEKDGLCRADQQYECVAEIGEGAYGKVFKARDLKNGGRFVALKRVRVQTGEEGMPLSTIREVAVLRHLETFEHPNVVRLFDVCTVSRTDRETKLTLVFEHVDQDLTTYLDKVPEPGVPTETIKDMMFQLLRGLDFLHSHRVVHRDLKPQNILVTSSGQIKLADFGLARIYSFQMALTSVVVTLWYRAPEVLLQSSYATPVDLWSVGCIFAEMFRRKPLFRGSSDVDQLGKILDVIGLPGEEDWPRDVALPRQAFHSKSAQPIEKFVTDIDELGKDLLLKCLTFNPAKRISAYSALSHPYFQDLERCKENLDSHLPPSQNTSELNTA
T1 sequence (P30281 whole entry partner): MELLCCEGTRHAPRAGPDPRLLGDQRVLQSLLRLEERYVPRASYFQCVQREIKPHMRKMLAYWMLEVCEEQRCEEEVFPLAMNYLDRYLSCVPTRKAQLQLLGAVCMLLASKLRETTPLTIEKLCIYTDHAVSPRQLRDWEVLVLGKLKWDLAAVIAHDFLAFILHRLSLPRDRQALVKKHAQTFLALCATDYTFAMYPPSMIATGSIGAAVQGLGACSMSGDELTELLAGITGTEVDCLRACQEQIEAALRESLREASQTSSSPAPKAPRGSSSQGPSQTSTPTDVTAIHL
Method: (§2) The reactivity of the polypeptide obtained in Production Example 1 to CDK1, CDK2, CDK4 and CDK6 was examined. Specifically, it was performed as follows.
as §1

CDK4/cyclin D3 = biological target: T2, CDK4/cyclin D3 (Homo sapiens, UniProt P11802); assay: CDK reactivity test 1 (Test Example 1); conditions: 10 μg/mL CDK/cyclin complex, 4 μg/mL substrate peptide, ATP-γS, 37° C. 1 hour
T2 construct: purchased SignalChem
T2 sequence (P11802 whole entry): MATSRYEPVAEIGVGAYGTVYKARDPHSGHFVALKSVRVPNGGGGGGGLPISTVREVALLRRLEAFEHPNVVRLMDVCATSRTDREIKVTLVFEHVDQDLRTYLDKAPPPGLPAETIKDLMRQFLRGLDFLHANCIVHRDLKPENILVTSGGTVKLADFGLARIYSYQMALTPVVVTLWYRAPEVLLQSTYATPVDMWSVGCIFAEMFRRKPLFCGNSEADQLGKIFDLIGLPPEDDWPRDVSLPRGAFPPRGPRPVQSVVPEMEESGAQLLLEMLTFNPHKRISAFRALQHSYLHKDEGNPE
T2 sequence (P30281 whole entry partner): as the sequence (P30281 whole entry partner) above
Method: as §2, §1

CDK1/cyclin A2 = biological target: T3, CDK1/cyclin A2 (Homo sapiens, UniProt P06493); assay: CDK reactivity test 1 (Test Example 1); conditions: 10 μg/mL CDK/cyclin complex, 4 μg/mL substrate peptide, ATP-γS, 37° C. 1 hour
T3 construct: purchased SignalChem
T3 sequence (P06493 whole entry): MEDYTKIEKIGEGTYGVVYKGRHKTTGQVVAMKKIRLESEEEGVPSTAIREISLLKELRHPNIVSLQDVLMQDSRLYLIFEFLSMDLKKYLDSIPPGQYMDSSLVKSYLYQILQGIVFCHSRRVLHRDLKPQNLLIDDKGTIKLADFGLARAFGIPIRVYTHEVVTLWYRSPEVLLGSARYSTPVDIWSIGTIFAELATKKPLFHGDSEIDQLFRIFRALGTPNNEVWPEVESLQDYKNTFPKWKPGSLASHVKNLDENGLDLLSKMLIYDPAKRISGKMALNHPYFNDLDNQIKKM
T3 sequence (P20248 whole entry partner): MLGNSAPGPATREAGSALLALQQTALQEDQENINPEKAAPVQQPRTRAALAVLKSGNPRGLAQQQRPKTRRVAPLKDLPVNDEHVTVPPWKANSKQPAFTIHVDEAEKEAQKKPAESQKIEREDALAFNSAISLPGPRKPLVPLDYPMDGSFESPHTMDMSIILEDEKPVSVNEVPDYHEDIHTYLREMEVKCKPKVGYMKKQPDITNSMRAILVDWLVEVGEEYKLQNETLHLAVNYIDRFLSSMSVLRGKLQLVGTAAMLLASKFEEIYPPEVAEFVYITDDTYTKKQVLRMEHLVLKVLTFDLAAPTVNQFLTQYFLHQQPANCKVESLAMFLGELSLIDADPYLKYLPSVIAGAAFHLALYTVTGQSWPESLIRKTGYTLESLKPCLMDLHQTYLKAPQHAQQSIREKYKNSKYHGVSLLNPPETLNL
Method: as §2, §1

CDK2/cyclin E1 = biological target: T4, CDK2/cyclin E1 (Homo sapiens, UniProt P24941); assay: CDK reactivity test 1 (Test Example 1); conditions: 10 μg/mL CDK/cyclin complex, 4 μg/mL substrate peptide, ATP-γS, 37° C. 1 hour
T4 construct: purchased SignalChem
Method: as §2, §1

With “GMPWSYNPWWRGGGG ({Biotin-Ahx}-GMPWSYNPWWRGGGG) [Polypeptide 17, mutant of Polypeptide 1, N-terminal biotin via aminohexane linker]” the “CDK4/6 Reactivity” value (CDK4 and CDK6) was 2.
For “AMPWSPNPWWRGGGG ({Biotin-Ahx}-AMPWSPNPWWRGGGG) [Polypeptide 2, mutant of Polypeptide 1, N-terminal biotin via aminohexane linker]”, the “CDK4/6 Reactivity” value (CDK4 and CDK6) was 15.
“PYKISEGLPTPTKMTPRSRI ({Biotin-Ahx}-PYKISEGLPTPTKMTPRSRI) [Comparative Polypeptide 1, partial peptide of Rb protein which is an in vivo substrate of CDK; N-terminal biotin via aminohexane linker]” was tested, and the Luminescence intensity (CDK6/cyclin D3) was 7,417,238, the Luminescence intensity (CDK4/cyclin D3) was 810,674 and the Luminescence intensity (CDK1/cyclin A2) was 67,564,327. For the same sequence, the Luminescence intensity (CDK2/cyclin E1) was 104,410,578.
For “GMPWSPNPWWRAGGG ({Biotin-Ahx}-GMPWSPNPWWRAGGG) [Polypeptide 12, mutant of Polypeptide 1, N-terminal biotin via aminohexane linker]”, the “CDK4/6 Reactivity” value (CDK4 and CDK6) was 6.
For “GMYWSPNPWWRGGGG ({Biotin-Ahx}-GMYWSPNPWWRGGGG) [Polypeptide E, mutant of Polypeptide 1, N-terminal biotin via aminohexane linker]”, the “CDK4/6 Reactivity” value (CDK4 and CDK6) was 6.
“GMPWSPNPAWRGGGG ({Biotin-Ahx}-GMPWSPNPAWRGGGG) [Polypeptide 9, mutant of Polypeptide 1, N-terminal biotin via aminohexane linker]” was tested, and the “CDK4/6 Reactivity” value (CDK4 and CDK6) was 7.
For “GMPWSPNPWWRGGGG ({Biotin-Ahx}-GMPWSPNPWWRGGGG) [Polypeptide 1, N-terminal residue biotin-modified via a linker (aminohexane)]”, the “CDK4/6 Reactivity” value (CDK4 and CDK6) was 13, the Luminescence intensity (CDK6/cyclin D3) was 122,281,045 and the Luminescence intensity (CDK4/cyclin D3) was 101,127,359. For the same sequence, the Luminescence intensity (CDK1/cyclin A2) was 93,190,919 and the Luminescence intensity (CDK2/cyclin E1) was 99,167,362.
In the case of “GMPYSPNPWWRGGGG ({Biotin-Ahx}-GMPYSPNPWWRGGGG) [Polypeptide 14, mutant of Polypeptide 1, N-terminal biotin via aminohexane linker]”, the “CDK4/6 Reactivity” value (CDK4 and CDK6) was 5.
With “GMPWSWNPWWRGGGG ({Biotin-Ahx}-GMPWSWNPWWRGGGG) [Polypeptide 15, mutant of Polypeptide 1, N-terminal biotin via aminohexane linker]” the “CDK4/6 Reactivity” value (CDK4 and CDK6) was 2.
For “GMPFSPNPWWRGGGG ({Biotin-Ahx}-GMPFSPNPWWRGGGG) [Polypeptide 13, mutant of Polypeptide 1, N-terminal biotin via aminohexane linker]”, the “CDK4/6 Reactivity” value (CDK4 and CDK6) was 5.
With “GMPWSPNPWWAGGGG ({Biotin-Ahx}-GMPWSPNPWWAGGGG) [Polypeptide 11, mutant of Polypeptide 1, N-terminal biotin via aminohexane linker]” the “CDK4/6 Reactivity” value (CDK4 and CDK6) was 3.
In the case of “AMPWSPAPAARAGGG ({Biotin-Ahx}-AMPWSPAPAARAGGG) [Polypeptide F, mutant of Polypeptide 1, N-terminal biotin via aminohexane linker]”, the “CDK4/6 Reactivity” value (CDK4 and CDK6) was 7.
“GMPWSPNPWWKGGGG ({Biotin-Ahx}-GMPWSPNPWWKGGGG) [Polypeptide B, mutant of Polypeptide 1, N-terminal biotin via aminohexane linker]” was tested, and the “CDK4/6 Reactivity” value (CDK4 and CDK6) was 5.
For “GMFWSPNPWWRGGGG ({Biotin-Ahx}-GMFWSPNPWWRGGGG) [Polypeptide D, mutant of Polypeptide 1, N-terminal biotin via aminohexane linker]”, the “CDK4/6 Reactivity” value (CDK4 and CDK6) was 5.
“GMWWSPNPWWRGGGG ({Biotin-Ahx}-GMWWSPNPWWRGGGG) [Polypeptide C, mutant of Polypeptide 1, N-terminal biotin via aminohexane linker]” was tested, and the “CDK4/6 Reactivity” value (CDK4 and CDK6) was 5.
With “GMPWSPNPWARGGGG ({Biotin-Ahx}-GMPWSPNPWARGGGG) [Polypeptide 10, mutant of Polypeptide 1, N-terminal biotin via aminohexane linker]” the “CDK4/6 Reactivity” value (CDK4 and CDK6) was 15.
“GAPWSPNPWWRGGGG ({Biotin-Ahx}-GAPWSPNPWWRGGGG) [Polypeptide 3, mutant of Polypeptide 1, N-terminal biotin via aminohexane linker]” was tested, and the “CDK4/6 Reactivity” value (CDK4 and CDK6) was 33.
“GMAWSPNPWWRGGGG ({Biotin-Ahx}-GMAWSPNPWWRGGGG) [Polypeptide 4, mutant of Polypeptide 1, N-terminal biotin via aminohexane linker]” was tested, and the “CDK4/6 Reactivity” value (CDK4 and CDK6) was 5.
With “GMPWSPNAWWRGGGG ({Biotin-Ahx}-GMPWSPNAWWRGGGG) [Polypeptide 8, mutant of Polypeptide 1, N-terminal biotin via aminohexane linker]” the “CDK4/6 Reactivity” value (CDK4 and CDK6) was 7.
With “GMPWSFNPWWRGGGG ({Biotin-Ahx}-GMPWSFNPWWRGGGG) [Polypeptide 16, mutant of Polypeptide 1, N-terminal biotin via aminohexane linker]” the “CDK4/6 Reactivity” value (CDK4 and CDK6) was 2.
In the case of “GMPASPNPWWRGGGG ({Biotin-Ahx}-GMPASPNPWWRGGGG) [Polypeptide 5, mutant of Polypeptide 1, N-terminal biotin via aminohexane linker]”, the “CDK4/6 Reactivity” value (CDK4 and CDK6) was 1.
In the case of “GMPWSPNPWWHGGGG ({Biotin-Ahx}-GMPWSPNPWWHGGGG) [Polypeptide A, mutant of Polypeptide 1, N-terminal biotin via aminohexane linker]”, the “CDK4/6 Reactivity” value (CDK4 and CDK6) was 7.
For “GMPWSANPWWRGGGG ({Biotin-Ahx}-GMPWSANPWWRGGGG) [Polypeptide 6, mutant of Polypeptide 1, N-terminal biotin via aminohexane linker]”, the “CDK4/6 Reactivity” value (CDK4 and CDK6) was 1.
With “RRRFRPASPLRGPPK ({Biotin-Ahx}-RRRFRPASPLRGPPK) [Comparative Polypeptide 2, polypeptide known as a substrate of CDK4 and CDK6; N-terminal biotin via aminohexane linker]” the Luminescence intensity (CDK6/cyclin D3) was 17,316,904, the Luminescence intensity (CDK4/cyclin D3) was 5,439,800 and the Luminescence intensity (CDK1/cyclin A2) was 41,516,306. For the same sequence, the Luminescence intensity (CDK2/cyclin E1) was 16,211,368.
“GMPWSPAPWWRGGGG ({Biotin-Ahx}-GMPWSPAPWWRGGGG) [Polypeptide 7, mutant of Polypeptide 1, N-terminal biotin via aminohexane linker]” was tested, and the “CDK4/6 Reactivity” value (CDK4 and CDK6) was 8.
